We go through four molecules from ChEMBL document CHEMBL5291721, “A preclinical secondary pharmacology resource illuminates target-adverse drug reaction associations of marketed drugs” (Nat Commun, 2023).

The term AC50 denotes the concentration at which the activity in the assay is half-maximal. The low end stands for greater potency, the high end for weaker potency.

The target of test [1] is T1, 5-hydroxytryptamine receptor 2C (Homo sapiens, UniProt P28335).
T1 sequence (P28335 whole entry): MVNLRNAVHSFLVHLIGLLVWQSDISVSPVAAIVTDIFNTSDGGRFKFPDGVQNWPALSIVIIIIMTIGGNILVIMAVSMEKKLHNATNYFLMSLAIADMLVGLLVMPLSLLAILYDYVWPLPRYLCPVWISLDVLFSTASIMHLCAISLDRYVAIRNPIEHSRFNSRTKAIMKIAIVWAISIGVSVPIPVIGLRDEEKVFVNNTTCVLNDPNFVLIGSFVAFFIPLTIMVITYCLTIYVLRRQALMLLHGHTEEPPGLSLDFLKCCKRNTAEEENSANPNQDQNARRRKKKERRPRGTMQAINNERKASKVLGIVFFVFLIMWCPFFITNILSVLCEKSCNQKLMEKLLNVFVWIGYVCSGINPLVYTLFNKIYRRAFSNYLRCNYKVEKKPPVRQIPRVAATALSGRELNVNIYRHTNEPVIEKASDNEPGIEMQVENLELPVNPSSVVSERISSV

The target of test [2] is T2, 5-hydroxytryptamine receptor 3A (Homo sapiens, UniProt P46098).
T2 sequence (P46098 whole entry): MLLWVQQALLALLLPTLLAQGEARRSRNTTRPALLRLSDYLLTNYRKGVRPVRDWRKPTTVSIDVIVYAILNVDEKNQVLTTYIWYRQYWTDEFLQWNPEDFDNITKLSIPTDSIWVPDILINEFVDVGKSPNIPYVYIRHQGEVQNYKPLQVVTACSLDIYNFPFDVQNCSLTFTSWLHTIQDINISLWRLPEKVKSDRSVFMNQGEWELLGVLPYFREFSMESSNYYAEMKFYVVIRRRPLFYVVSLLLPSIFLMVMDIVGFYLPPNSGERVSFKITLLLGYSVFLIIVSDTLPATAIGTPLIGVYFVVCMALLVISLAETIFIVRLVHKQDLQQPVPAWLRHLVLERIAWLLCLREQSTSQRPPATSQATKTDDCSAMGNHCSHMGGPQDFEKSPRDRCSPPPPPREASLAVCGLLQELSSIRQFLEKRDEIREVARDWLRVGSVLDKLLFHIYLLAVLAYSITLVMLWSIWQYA
Format: functional.

Test [3] deals with T3, Alpha-2B adrenergic receptor (Homo sapiens, UniProt P18089).
T3 sequence (P18089 whole entry): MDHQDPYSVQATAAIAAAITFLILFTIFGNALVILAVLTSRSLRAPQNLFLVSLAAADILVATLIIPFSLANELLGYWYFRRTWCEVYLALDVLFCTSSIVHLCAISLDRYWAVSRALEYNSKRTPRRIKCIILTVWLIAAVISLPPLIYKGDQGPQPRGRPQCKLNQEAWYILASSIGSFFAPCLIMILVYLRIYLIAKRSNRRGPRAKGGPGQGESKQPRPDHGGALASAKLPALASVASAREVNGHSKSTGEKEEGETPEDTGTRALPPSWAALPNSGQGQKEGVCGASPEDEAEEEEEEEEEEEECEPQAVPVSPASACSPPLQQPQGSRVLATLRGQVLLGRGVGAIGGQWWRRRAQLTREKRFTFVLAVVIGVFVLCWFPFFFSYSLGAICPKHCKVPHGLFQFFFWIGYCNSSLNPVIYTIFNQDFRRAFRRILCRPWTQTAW

Test [4] concerns the target T4, Alpha-1A adrenergic receptor (Homo sapiens, UniProt P35348).
T4 sequence (P35348 whole entry): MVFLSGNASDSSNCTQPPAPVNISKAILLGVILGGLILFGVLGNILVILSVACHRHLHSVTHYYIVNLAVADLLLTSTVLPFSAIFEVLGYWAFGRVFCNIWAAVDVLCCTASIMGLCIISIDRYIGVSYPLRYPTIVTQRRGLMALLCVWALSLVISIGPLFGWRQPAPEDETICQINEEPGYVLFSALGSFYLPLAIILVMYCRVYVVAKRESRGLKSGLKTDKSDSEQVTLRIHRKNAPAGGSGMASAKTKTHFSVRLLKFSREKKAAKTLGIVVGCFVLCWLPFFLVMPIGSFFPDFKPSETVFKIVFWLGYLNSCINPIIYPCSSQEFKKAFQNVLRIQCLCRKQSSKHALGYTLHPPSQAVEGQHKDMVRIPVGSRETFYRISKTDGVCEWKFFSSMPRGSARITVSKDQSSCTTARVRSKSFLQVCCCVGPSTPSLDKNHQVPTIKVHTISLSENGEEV

Test [5] deals with T5, Adenosine receptor A1 (Homo sapiens, UniProt P30542).
T5 sequence (P30542 whole entry): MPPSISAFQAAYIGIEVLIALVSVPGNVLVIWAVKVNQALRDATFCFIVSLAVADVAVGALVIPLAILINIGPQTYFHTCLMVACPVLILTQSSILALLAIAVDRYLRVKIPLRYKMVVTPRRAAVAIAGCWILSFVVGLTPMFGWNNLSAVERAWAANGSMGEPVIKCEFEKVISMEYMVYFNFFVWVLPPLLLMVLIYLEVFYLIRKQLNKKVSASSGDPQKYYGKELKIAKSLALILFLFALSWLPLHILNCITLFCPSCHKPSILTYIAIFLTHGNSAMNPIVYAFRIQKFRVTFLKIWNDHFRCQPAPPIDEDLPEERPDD

Test [6] has as its target 3',5'-cyclic-AMP phosphodiesterase 4D (Homo sapiens, UniProt Q08499). The test is classed as functional.
The target in test [7] is T6, Cannabinoid receptor 1 (Homo sapiens, UniProt P21554). Format: functional, cell-based.
Test [8] addresses Melanocortin receptor 3 (Homo sapiens, UniProt P41968).
Test [9] concerns the target cGMP-inhibited 3',5'-cyclic phosphodiesterase 3A (Homo sapiens, UniProt Q14432). The test is classed as functional.
Test [10] addresses Melanocortin receptor 4 (Homo sapiens, UniProt P32245).
The target in test [11] is T6, Cannabinoid receptor 1. The test is classed as functional, cell-based. This is another data set of the same source.
Test [12] has as its target Histamine H2 receptor (Homo sapiens, UniProt P25021). The test is classed as functional, cell-based.
Test [13] deals with Gamma-aminobutyric acid receptor subunit alpha-1 (Rattus norvegicus, UniProt P62813). The test is classed as functional.
Note: assay procedure not described here.

Chain of Histamine H2 receptor (P25021 whole entry): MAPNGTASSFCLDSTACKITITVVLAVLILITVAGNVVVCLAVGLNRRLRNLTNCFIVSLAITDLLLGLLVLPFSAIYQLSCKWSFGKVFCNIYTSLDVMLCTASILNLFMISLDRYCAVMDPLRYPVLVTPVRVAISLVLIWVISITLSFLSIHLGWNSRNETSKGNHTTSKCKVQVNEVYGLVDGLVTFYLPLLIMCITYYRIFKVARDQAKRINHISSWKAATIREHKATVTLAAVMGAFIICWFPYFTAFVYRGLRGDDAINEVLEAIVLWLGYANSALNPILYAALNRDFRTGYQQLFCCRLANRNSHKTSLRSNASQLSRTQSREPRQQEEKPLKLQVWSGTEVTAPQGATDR
Chain of 3',5'-cyclic-AMP phosphodiesterase 4D (Q08499 whole entry): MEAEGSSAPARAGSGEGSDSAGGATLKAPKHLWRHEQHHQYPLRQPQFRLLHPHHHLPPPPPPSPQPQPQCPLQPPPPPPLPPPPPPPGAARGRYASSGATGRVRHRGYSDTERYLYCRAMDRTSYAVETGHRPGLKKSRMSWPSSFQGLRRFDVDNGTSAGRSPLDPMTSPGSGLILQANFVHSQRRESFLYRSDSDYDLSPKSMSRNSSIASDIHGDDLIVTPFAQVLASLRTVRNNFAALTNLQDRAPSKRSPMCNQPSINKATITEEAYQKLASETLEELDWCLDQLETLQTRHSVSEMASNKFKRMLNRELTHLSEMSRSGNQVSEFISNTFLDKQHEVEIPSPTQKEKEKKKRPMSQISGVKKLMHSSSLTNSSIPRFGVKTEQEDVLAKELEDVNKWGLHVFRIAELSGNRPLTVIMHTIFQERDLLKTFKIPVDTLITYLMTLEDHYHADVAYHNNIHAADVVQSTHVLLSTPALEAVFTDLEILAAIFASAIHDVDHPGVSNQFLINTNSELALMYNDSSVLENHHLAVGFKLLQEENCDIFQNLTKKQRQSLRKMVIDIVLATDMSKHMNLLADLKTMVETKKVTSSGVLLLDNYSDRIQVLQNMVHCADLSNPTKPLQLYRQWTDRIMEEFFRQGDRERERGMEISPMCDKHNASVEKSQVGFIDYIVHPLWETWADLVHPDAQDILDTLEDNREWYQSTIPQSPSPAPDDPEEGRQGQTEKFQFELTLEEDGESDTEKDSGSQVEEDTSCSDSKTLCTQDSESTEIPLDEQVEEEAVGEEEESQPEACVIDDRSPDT
Chain of Melanocortin receptor 3 (P41968 whole entry): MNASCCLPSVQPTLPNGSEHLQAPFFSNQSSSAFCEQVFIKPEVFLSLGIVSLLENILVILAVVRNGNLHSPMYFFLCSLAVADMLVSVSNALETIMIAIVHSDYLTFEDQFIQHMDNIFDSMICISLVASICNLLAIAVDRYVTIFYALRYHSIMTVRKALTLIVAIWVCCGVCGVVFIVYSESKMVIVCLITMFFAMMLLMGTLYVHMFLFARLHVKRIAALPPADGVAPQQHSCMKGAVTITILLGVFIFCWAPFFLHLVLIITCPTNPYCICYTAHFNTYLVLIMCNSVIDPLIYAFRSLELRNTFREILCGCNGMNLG
Chain of Gamma-aminobutyric acid receptor subunit alpha-1 (P62813 whole entry): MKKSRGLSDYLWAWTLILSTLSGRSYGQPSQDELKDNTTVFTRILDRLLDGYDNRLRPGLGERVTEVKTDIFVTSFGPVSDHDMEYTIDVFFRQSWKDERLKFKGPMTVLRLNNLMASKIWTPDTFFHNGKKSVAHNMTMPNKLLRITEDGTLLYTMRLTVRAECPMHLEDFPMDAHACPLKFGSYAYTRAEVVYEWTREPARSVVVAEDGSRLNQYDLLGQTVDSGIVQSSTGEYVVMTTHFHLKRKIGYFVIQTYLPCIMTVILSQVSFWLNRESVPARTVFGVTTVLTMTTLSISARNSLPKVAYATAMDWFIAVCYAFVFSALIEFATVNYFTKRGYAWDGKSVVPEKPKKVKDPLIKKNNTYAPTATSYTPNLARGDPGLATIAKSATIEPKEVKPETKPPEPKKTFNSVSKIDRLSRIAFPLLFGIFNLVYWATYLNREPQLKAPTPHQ
Chain of cGMP-inhibited 3',5'-cyclic phosphodiesterase 3A (Q14432 whole entry): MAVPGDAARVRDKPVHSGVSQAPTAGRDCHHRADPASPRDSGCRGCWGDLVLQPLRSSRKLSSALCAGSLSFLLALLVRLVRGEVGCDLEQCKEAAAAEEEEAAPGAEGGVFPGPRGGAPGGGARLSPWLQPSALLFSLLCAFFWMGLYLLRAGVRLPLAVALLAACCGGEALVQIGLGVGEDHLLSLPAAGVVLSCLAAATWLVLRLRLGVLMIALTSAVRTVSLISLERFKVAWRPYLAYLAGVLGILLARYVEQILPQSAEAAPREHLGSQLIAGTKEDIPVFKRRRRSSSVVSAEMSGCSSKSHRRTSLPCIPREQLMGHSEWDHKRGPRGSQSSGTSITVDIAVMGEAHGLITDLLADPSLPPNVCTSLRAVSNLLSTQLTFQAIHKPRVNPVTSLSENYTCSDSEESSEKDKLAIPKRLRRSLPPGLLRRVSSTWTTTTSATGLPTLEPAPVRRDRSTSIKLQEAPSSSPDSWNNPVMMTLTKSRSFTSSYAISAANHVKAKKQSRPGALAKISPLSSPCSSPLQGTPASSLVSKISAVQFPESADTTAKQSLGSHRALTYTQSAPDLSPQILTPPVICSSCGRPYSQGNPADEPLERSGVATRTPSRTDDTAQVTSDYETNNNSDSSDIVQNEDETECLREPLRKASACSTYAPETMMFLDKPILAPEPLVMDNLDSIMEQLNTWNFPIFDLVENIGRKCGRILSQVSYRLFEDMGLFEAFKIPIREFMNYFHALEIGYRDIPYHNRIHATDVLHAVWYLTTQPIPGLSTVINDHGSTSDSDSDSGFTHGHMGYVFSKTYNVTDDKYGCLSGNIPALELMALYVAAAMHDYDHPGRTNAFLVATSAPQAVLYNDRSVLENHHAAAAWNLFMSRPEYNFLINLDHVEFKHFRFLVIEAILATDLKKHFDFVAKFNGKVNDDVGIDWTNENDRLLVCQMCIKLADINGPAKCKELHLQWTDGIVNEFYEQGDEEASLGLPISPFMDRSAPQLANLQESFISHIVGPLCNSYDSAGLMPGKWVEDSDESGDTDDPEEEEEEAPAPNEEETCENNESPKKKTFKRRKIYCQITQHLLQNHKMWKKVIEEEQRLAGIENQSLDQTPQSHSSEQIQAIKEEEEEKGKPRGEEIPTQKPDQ
T6 sequence (P21554 whole entry): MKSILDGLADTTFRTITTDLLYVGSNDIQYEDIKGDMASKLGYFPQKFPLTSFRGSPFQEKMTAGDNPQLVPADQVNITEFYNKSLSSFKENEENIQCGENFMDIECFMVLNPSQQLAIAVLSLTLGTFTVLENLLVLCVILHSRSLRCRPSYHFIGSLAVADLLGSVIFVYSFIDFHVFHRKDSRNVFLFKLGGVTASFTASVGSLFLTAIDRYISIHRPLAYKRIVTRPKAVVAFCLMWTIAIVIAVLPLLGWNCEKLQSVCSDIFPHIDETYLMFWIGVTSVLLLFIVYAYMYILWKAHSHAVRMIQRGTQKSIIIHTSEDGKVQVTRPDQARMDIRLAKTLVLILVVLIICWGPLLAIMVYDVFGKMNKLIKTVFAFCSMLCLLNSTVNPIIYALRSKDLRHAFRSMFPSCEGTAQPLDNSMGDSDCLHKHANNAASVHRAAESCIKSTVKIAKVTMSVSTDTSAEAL
Chain of Melanocortin receptor 4 (P32245 whole entry): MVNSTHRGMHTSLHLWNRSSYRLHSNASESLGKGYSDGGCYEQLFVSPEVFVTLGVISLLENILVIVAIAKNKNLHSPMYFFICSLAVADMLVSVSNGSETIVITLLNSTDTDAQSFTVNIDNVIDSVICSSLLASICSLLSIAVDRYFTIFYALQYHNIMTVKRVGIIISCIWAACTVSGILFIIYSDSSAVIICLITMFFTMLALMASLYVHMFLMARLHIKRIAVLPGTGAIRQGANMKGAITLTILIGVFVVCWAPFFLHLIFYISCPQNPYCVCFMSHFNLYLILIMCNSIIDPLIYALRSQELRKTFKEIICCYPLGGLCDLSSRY

As to `O=C(O)COCCN1CCN(C(c2ccccc2)c2ccc(Cl)cc2)CC1` (stereo not given) [CETIRIZINE], the AC50 in [1] was > 30 µM; in test [2] it was > 30 µM; in test [3], > 10 µM; in [4] it was > 10 µM; in [5] it was > 30 µM; in test [6], > 30 µM. Besides, the AC50 in [7], in test [8], in test [9], in test [10] and in test [11] was > 30 µM throughout.

Consider `C[C@@H]1C[C@H]2[C@@H]3C[C@H](F)C4=CC(=O)C=C[C@]4(C)[C@@]3(F)[C@@H](O)C[C@]2(C)[C@@]1(OC(=O)c1ccco1)C(=O)SCF` [FLUTICASONE FUROATE], for which the AC50 in test [1] was > 30 µM; in test [2], > 30 µM; in test [3], > 10 µM; in test [4] it was > 10 µM; in test [5], > 10 µM; in test [6], > 30 µM. Moreover, the AC50 in test [12] is > 10 µM; in test [13], > 10 µM; in test [7], > 30 µM; in test [8], > 10 µM; in test [9], > 30 µM; in [10], > 10 µM. Further, in [11], the AC50 is > 30 µM.

With `CN(C)CCCN1c2ccccc2CCc2ccccc21` [IMIPRAMINE], the AC50 in [1] is 0.13 µM; in [2] it was > 10 µM; in test [3] it was 0.32 µM; in test [4], 0.0804 µM; in test [5], > 30 µM; in test [6], > 10 µM. In addition, the AC50 in [12] is > 10 µM; in test [13] it was > 10 µM; in test [7], > 30 µM; in [8], 18.8 µM; in test [9], > 10 µM; in test [10] it was 21.4 µM. In addition, the AC50 in [11] was > 30 µM.

For the molecule `C[C@]12C=CC(=O)C=C1CC[C@@H]1[C@@H]2CC[C@]2(C)OC(=O)CC[C@@H]12` [TESTOLACTONE], the AC50 in test [1] was > 30 µM; in test [2] it was > 30 µM; in test [3], > 10 µM; in test [4], > 10 µM; in [5], > 10 µM; in test [6] it was > 30 µM. Moreover, the concentration at half-maximal activity (AC50) in [12] was > 10 µM; in test [13], > 10 µM; in test [7] it was > 30 µM; in test [8], > 10 µM; in [9], > 30 µM; in [10], > 10 µM. For the same molecule, the AC50 in test [11] was > 30 µM.
